From ChEMBL document CHEMBL5726992, “CGRP receptor antagonists” (2019)

Target: Calcitonin-gene-related peptide receptor, CALCRL/RAMP1 (Homo sapiens, UniProt O60894+Q16602)
Test: Radioligand Binding Assay: Human CGRP receptors expressed (consisting of CRLR and RAMP1) in insect Sf21 cell membrane homogenates were re-suspended in the binding buffer (10 mM HEPES, pH 7.4, 5 mM MgCl2, 0.2% BSA) to a final assay concentration of 0.6 μg protein per well. Saturation isotherms were determined by the addition of various concentrations of 3H-telcagepant (Ho et al, The Lancet, 2008, 372, 2115) (in a total reaction volume of 250 μL) for 60 min at rt. At the end of the incubation, membranes were filtered onto a unifilter, a 96-well white microplate with bonded GF/B filter pre-incubated with 0.5% PEI, with a Tomtec cell harvester and washed 5 times with distilled water. Non-specific binding (NSB) was measured in the presence of 10 nM MK-3207 hydrochloride (CAS No. 957116-20-0). Radioactivity on the filter was counted (1 min) on a microbeta counter after addition of 50 μL of scintillation fluid. For inhibition experiments, membranes were incubated with 0.5 nM 3H-telcagepant and 10 concentrations of the inhibitory compound (0.001-10 μM). IC50 values were derived from the inhibition curve and the affinity constant (Ki) values were calculated using the Cheng-Prussoff equation (Cheng et al, Biochem. Pharmacol. 1973, 22, 3099-3108).

Chain of Calcitonin-gene-related peptide receptor, CALCRL/RAMP1 (O60894 whole entry): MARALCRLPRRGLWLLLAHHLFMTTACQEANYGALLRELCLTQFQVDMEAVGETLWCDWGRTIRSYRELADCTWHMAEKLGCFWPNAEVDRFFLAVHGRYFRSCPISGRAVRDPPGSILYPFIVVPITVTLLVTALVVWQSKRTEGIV
Chain of Calcitonin-gene-related peptide receptor, CALCRL/RAMP1 (Q16602 whole entry): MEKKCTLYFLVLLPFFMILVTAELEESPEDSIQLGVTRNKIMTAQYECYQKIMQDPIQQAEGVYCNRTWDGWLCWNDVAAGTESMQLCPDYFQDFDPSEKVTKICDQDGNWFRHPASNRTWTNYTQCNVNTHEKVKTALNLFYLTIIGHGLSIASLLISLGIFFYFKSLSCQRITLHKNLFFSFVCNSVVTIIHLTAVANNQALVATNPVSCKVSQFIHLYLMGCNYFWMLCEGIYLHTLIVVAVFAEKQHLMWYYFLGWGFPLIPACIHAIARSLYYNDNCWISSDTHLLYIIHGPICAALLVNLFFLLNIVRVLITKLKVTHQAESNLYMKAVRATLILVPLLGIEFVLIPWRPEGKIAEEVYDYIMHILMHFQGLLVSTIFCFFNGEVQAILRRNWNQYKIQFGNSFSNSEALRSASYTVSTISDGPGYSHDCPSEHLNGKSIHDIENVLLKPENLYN

Ki: 0.025 nM
Structure (SMILES): Cc1cc(C[C@@H](NC(=O)N2CCC(n3c(=O)[nH]c4ncccc43)CC2)C(=O)N[C@@H](CC2CCN(CCN(C)C)CC2)C(=O)N2CCN(c3ccncc3)CC2)cc2cn[nH]c12
